Source: the supplement of paper PMC11061612

What was measured:
Assay in all cases: combination Emax (second highest fraction inhibited in the dose matrix, 72 h); higher = more inhibition; extreme values may be limits of the assay
[1] = test system: NCI-H1563 (Lung Adenocarcinoma)
Summary of the method: (§1)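 Cell lines in DMEM/F12 or RPMI with 10% FBS were plated in 1536-well plates, held 24 hours at 37°C, 5% CO2, then given two-drug dose matrices for 72 hours (DMSO typically 0.2%). Viability was read by CellTiter-Glo 2.0 luminescence and scaled as inhibition from 0 (vehicle wells) to 1 (blank wells). Combination Emax is the second-highest inhibition in the matrix; Bliss excess is observed combination effect minus expected EA + EB − EA·EB, EA and EB being single-agent effects.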

[2] = test system: COLO-684 (Endometrial Carcinoma)
Summary of the method: as §1

[3] = test system: CML-T1 (Chronic Myelogenous Leukemia)
Summary of the method: as §1

[4] = test system: NCI-H1623 (Lung Adenocarcinoma)
Summary of the method: as §1

[5] = test system: NKM-1 (Acute Myeloid Leukemia)
Summary of the method: as §1

[6] = test system: LAMA-84 (Chronic Myelogenous Leukemia)
Summary of the method: as §1

[7] = test system: NCI-H1155 (Non-Small Cell Lung Carcinoma)
Summary of the method: as §1

[8] = test system: Calu-6 (Non-Small Cell Lung Carcinoma)
Summary of the method: as §1

[9] = test system: KYSE-70 (Esophageal Squamous Cell Carcinoma)
Summary of the method: as §1

[10] = test system: NCI-H810 (Non-Small Cell Lung Carcinoma)
Summary of the method: as §1

[11] = test system: Becker (Low Grade Glioma)
Summary of the method: as §1

[12] = test system: SNU-175 (Colorectal Carcinoma)
Summary of the method: as §1

RT4 (Bladder Carcinoma) = test system: RT4 (Bladder Carcinoma)
Summary of the method: as §1

[13] = test system: HTC-C3 (Thyroid Gland Carcinoma)
Summary of the method: as §1

[14] = test system: BALL-1 (B-Lymphoblastic Leukemia)
Summary of the method: as §1

[15] = test system: FLO-1 (Esophageal Adenocarcinoma)
Summary of the method: as §1

786-0 (Kidney Carcinoma) = test system: 786-0 (Kidney Carcinoma)
Summary of the method: as §1

[16] = test system: RL95-2 (Endometrial Carcinoma)
Summary of the method: as §1

[17] = test system: SJRH30 (Rhabdomyosarcoma)
Summary of the method: as §1

SMILES	combination Emax [1]	combination Emax [2]	combination Emax [3]	combination Emax [4]	combination Emax [5]	combination Emax [6]	combination Emax [7]	combination Emax [8]	combination Emax [9]	combination Emax [10]	combination Emax [11]	combination Emax [12]	combination Emax (RT4 (Bladder Carcinoma))	combination Emax [13]	combination Emax [14]	combination Emax [15]	combination Emax (786-0 (Kidney Carcinoma))	combination Emax [16]	combination Emax [17]
CN(C)CCCOc1ccc(-c2ccc3ncc4c(c3c2)n(C2CCOCC2)c(=O)n4C)cn1 [AZD0156] + O=C(c1cc(Cc2n[nH]c(=O)c3ccccc23)ccc1F)N1CCN(C(=O)C2CC2)CC1 [Olaparib] (first compound max 3 µM, partner max 3 µM)	0.246	0.307	0.688	0.333	0.585	0.472	0.452	0.36	0.123	0.306	0.247	0.553	0.174	0.142	0.79	0.289	0.223	0.384	0.48
Cc1nc(Nc2ncc(C(=O)Nc3c(C)cccc3Cl)s2)cc(N2CCN(CCO)CC2)n1 [Dasatinib] + CC(=O)Nc1cccc(-n2c(=O)n(C3CC3)c(=O)c3c(Nc4ccc(I)cc4F)n(C)c(=O)c(C)c32)c1 [Trametinib] (first compound max 2 µM, 7x7, partner max 1 µM)	0.447	0.0848	0.966	0.576	0.899	1	0.237	0.969	0.278	0.103	0.5	0.425	0.822	0.906	0.257	0.966	0.642	0.405	0.157
Cn1cnc2c(F)c(Nc3ccc(Br)cc3Cl)c(C(=O)NOCCO)cc21 [Selumetinib] + C=CCn1c(=O)c2cnc(Nc3ccc(N4CCN(C)CC4)cc3)nc2n1-c1cccc(C(C)(C)O)n1 [AZD1775] (first compound max 10 µM, partner max 1 µM)	0.303	0.708	0.939	0.607	0.875	0.973	0.342	0.855	0.328	0.542	0.309	0.718	0.368	0.691	1	0.792	0.572	0.587	0.846
COc1nnc2ccc(N3CCC(c4ccc(OCCN5CCN(C)C(=O)[C@H]5C)cc4)CC3)nn12 [AZD5153] + CC1(C)CCC(CN2CCN(c3ccc(C(=O)NS(=O)(=O)c4ccc(NCC5CCOCC5)c([N+](=O)[O-])c4)c(Oc4cnc5[nH]ccc5c4)c3)CC2)=C(c2ccc(Cl)cc2)C1 [Venetoclax] (first compound max 1 µM, 7x7, partner max 1 µM)	0.491	0.528	0.443	0.419	0.978	0.82	0.71	0.157	0.409	0.583	0.334	0.665	0.483	0.763	1	0.51	0.503	0.426	0.383
Cn1cnc2c(F)c(Nc3ccc(Br)cc3Cl)c(C(=O)NOCCO)cc21 [Selumetinib] + C[C@@H]1COCCN1C2=NC(=NC(=C2)C3(CC3)[S@](=N)(=O)C)C4=C5C=CNC5=NC=C4 [AZD6738] (first compound max 10 µM, 7x7, partner max 10 µM)	0.313	0.698	0.977	0.771	0.796	0.992	0.758	0.817	0.243	0.414	0.427	0.718	0.549	0.75	1	0.635	0.606	0.772	0.821
NC1(C(=O)N[C@@H](CCO)c2ccc(Cl)cc2)CCN(c2ncnc3[nH]ccc23)CC1 [Capivasertib] + CCN(CCO)CCCOc1ccc2c(Nc3cc(CC(=O)Nc4cccc(F)c4)[nH]n3)ncnc2c1 [AZD2811] (first compound max 10 µM, 7x7, partner max 1 µM)	0.441	0.659	0.9	0.555	0.779	0.612	0.864	0.413	0.272	0.534	0.535	0.846	0.457	0.405	0.74	0.415	0.553	1	0.734
NC1(C(=O)N[C@@H](CCO)c2ccc(Cl)cc2)CCN(c2ncnc3[nH]ccc23)CC1 [Capivasertib] + COc1nnc2ccc(N3CCC(c4ccc(OCCN5CCN(C)C(=O)[C@H]5C)cc4)CC3)nn12 [AZD5153] (first compound max 10 µM, 7x7, partner max 1 µM)	0.76	0.782	0.703	0.52	1	0.907	0.822	0.461	0.358	0.582	0.593	0.649	0.457	0.791	0.973	0.612	0.733	0.9	0.876
